Measurements taken from patent publication US10675267B2, “Methods for detection and eradication of myeloid leukemia stem cells” (priority 2015, dated 2020).
“Also recorded” adds a separate entry of the source.

What was measured:
[1] = tested on: AML LSC (CD34+ cells from AML primary samples); experiment: SL/M2 stromal co-culture with colony formation (survival) and replating (self-renewal) assays, AML; format: cell-based, human; details: two weeks SL/M2 co-culture, 0.1-10 μM, versus DMSO
Description: (§1) In hypothesis-driven experiments, the splicing modulatory compound 17S-FD-895 was tested to determine efficacy in altering splicing activity in cell lines, and to evaluate effects on AML LSC survival and self-renewal capacity in humanized bone marrow stromal co-cultures and in PRIMAGRAFT™ AML LSC models. Cell culture experiments were performed using 293T and sAML (MOLM-13) cell lines, and SL and M2 bone marrow stromal cell lines. Animal studies were performed using immunocompromised Rag2−/−γc−/−[20] or NOD/SCID-IL2RG mice (Jackson Laboratory, Bar Harbor, Me.). Primary AML and normal control samples were used in in vitro hematopoietic stem and progenitor assays after bone marrow stromal co-culture and treatment with splicing modulatory compounds (FD-895 or 17S-FD-895) or vehicle control (DMSO). Colony formation potential and self-renewal capacity were assessed by counting colony numbers (survival) after two weeks of growth in semi-solid (methylcellulose) media, and subsequent replating capacity (self-renewal) was assessed after transfer to fresh methylcellulose for an additional two weeks of culture. Three primary AML samples were utilized to establish PRIMAGRAFT™ models in immunocompromised mice, and mice engrafted with cells from two of these models (AML-37 and AML-08) were treated with 17S-FD-895 or vehicle (DMSO) to evaluate changes in AML LSC survival and self-renewal capacity in vivo. Data were collected by flow cytometry and qRT-PCR analysis of CD34-selected human LSC-enriched cells from engrafted mice.
(§2) Bone marrow SL/M2 monolayers were established from freshly inactivated (irradiated) cells and then human CD34^+ cells selected from AML primary samples (n=8) and normal controls (CD34^+ cells from cord blood, CB, n=6; or aged bone marrow, n=6) were added. Survival and self-renewal of the CD34+ cells were investigated by methylcellulose-based colony and replating assays. Two SF3B1-targeted splicing modulators, FD-895 or 17S-FD-895, were added at the initiation of co-culture at concentrations ranging from 0.1 to 10 μM.
Mouse bone marrow stromal cell lines (SL and M2 mycoplasma-free authenticated cells obtained from ATCC) expressing human interleukin-3 (IL-3), stem cell factor (SCF) and granulocyte-colony stimulating factor (G-CSF), which support erythroid and myeloid cell expansion and differentiation, were maintained under standard culture conditions, as previously described. Briefly, SL cells were grown in complete medium containing DMEM (Corning), 10% FBS, 1% Glutamax, and 1% penicillin-streptomycin (Life Technologies), while M2 cells were grown in complete medium containing RPMI, 10% FBS, 1% Glutamax, and 1% penicillin-streptomycin (all from Life Technologies). Every four passages, cells were selected by addition of G418 and hygromycin to the culture media for one passage (3-4 days), to maintain human cytokine expression. All cell lines were maintained in T-25 or T-75 culture flasks and were passaged at dilutions of 1:5-1:10 every 2-4 days. Low passage aliquots of cells were thawed every two months to ensure consistency of experiments.
(§3) As previously described (Goff et al., 2013), humanized bone marrow SL/M2 monolayers were inactivated (irradiated) and then human CD34^+ cells selected from AML primary samples and normal controls were added for two weeks of co-culture, followed by methylcellulose-based colony and replating assays. FD-895 or 17S-FD-895 were added at the initiation of co-culture, with DMSO as a vehicle control.
Mouse bone marrow stromal cell lines (SL and M2 mycoplasma-free authenticated cells obtained from ATCC) expressing human interleukin-3 (IL-3), stem cell factor (SCF) and granulocyte-colony stimulating factor (G-CSF), which support erythroid and myeloid cell expansion and differentiation (Hogge et al., 1996), were maintained under standard culture conditions, as previously described (Goff et al., 2013). […]

[2] = tested on: CD34+ cells from normal aged bone marrow; experiment: SL/M2 stromal co-culture with colony and replating assays, normal bone marrow; format: cell-based, human; details: normal aged bone marrow samples
Description: as §1, §2, §3

Structure (SMILES): CCC(OC)C(C)C1OC1C(O)C(C)/C=C/C=C(\C)C1OC(=O)CC(O)CCC(C)(O)C(OC(C)=O)/C=C/C1C (stereo not shown) [FD-895, reference compound]
- AML LSC self-renewal (colony replating) [1]: dose-dependent reduction; also recorded: reduced AML LSC self-renewal
- AML LSC survival (colony formation) [1]: dose-dependent reduction; also recorded: reduced AML LSC survival
- erythroid colony formation and self-renewal [2]: not significantly changed; also recorded: no effect on erythroid colonies
- granulocyte-macrophage (myeloid) colony survival [2]: slight decrease; also recorded: reduces myeloid colony formation
